{
  "source": "patent US5032597A",
  "about": "“Method of using phenylquinolinecarboxylic acids and derivatives for lymthoid leukemia treatment in a mammal” (priority 1987, dated 1991)",
  "key": {"[1]": {"system": "human colon carcinoma cells HCT-15", "test": "Human colon tumor test in vitro, HCT-15 cell growth inhibition", "format": "cell-based", "details": "for in vitro HCT-15 ID50 (50 percent inhibition of number of doublings): 4320 min; for IC50: Homo sapiens, HCT-15, 72 h, read-out: in vitro HCT-15 ID50 (50 percent inhibition of number of doublings)", "description": "The compound of this invention were also tested for their ability to inhibit the growth of human colon carcinoma cells in vitro.\nThe human colon carcinoma cells, designated HCT-15, were derived from a specimen of an adenocarcinoma of human colon removed during surgery. The cells were grown in Roswell Park Medical Institute (RPMI) Medium 1640 supplemented with 10% heat inactivated fetal calf serum, penicillin (100 units/ml), streptomycin (100 μg/ml), gentamicin (20 μg/ml), fungizone (25 μg/ml), 0.075 percent sodium bicarbonate, […] 4-(2-hydroxyethyl)-1-piperazineethanesulfonic acid and […] N-tris(hydroxymethyl)methylglycine. […] On day 1 cells from sample dishes were harvested using trypsin (0.25%) treatment and counted with a hemocytometer to determine the number of cells per dish at the time of the addition of the compounds. Compounds of this invention were added in varying concentrations to other cultures. On day 4, treated and control cultures were harvested by trypsin treatment and the number of cells was determined. The number of doublings for the control cells was determined from the cell numbers on days 1 and 4. The ID50, the concentration of compound required to inhibit by 50 percent the number of doublings, was then calculated from the dose-response curve in which cell numbers were plotted on log-log paper against compound concentrations in micrograms per ml."}, "L1210 leukemia": {"system": "L1210 leukemia", "test": "Lymphoid Leukemia L1210, survival of tumored mice", "format": "in vivo, CD2F1 mice", "details": "for response vs control in vivo at 50 mg/kg: 50 mg/kg i.p.; for response vs control in vivo at 100 mg/kg: 100 mg/kg i.p.; for response vs control in vivo at 300 mg/kg: 300 mg/kg i.p.; for response vs control in vivo at 400 mg/kg: 400 mg/kg i.p.; for response vs control in vivo at 200 mg/kg: 200 mg/kg i.p.", "description": "The efficacy of the compounds of this invention against the transplanted mouse tumors was evaluated in test systems currently in use at the National Cancer Institute for the detection and assessment of anticancer activity. […] J. Cancer, 17, 129-142, (1981); Venditti, J. M., Seminars in Oncology, 8 (4) (1981); Goldin, A. and J. M. Venditti, in Recent Results in Cancer Research, 70, S. K. Carter and Y. Sakurai, Eds., Springer-Verlag, Berlin/Heidelberg, 1980].\nThe animals used in this test were CD2 F1 mice, all males weighing a minimum of 18 g and all within a 4 g weight range at the start of the test. The test group consisted of six mice. The tumor was implanted in each of the test mice by the intraperitoneal injection of 0.1 ml of diluted ascitic fluid containing 10^5 cells drawn from a mouse with L1210 leukemia. The test compounds were suspended in hydroxypropylcellulose or saline with Tween® 80 surfactant or dissolved in saline and injected intraperitoneally, at various doses, once daily for nine consecutive days starting on day one relative to the day of tumor inoculation (day 0). The control mice received injections of saline or hydroxypropylcellulose vehicle only. The mice were weighed and survivors were recorded on a regular basis for 30 days. The median survival time and the ratio of the median survival time for the treated (T) and control (C) mice was calculated. […] Drug effectiveness was assessed on the basis of the survival time. Results were expressed as a percentage of the control survival time (Median Survival Time: T/C ×100%). The criterion for effectiveness was determined by: T/C×100≥125 percent."}, "[2]": {"details": "HCT-15 cells, compound day 1 to day 4"}, "[3]": {"details": "Mus musculus, L1210, ip, 720 h, read-out: L1210 Leukemia % T/C (median survival time)"}},
  "note": "Like-named read-outs stand apart in the source and are kept apart here.",
  "data": [
    {"molecule": "Cc1c(-c2ccc(C3CCCCC3)cc2)nc2ccc(F)cc2c1C(=O)O", "note": "[Example 169]", "values": [
      {"measurement": "in vitro HCT-15 ID50 (50 percent inhibition of number of doublings)", "setting": "[1]; [2]", "result": 0.04, "unit": "µg/mL"}
    ]},
    {"molecule": "Cc1ccc2nc(-c3ccc(-c4ccccc4)cc3)c(C)c(C(=O)O)c2c1", "note": "[Example 14]", "values": [
      {"measurement": "response vs control in vivo at 50 mg/kg", "setting": "L1210 leukemia; [3]", "result": 195, "unit": "%"},
      {"measurement": "IC50", "setting": "[1]; [2]", "result": 0.38, "unit": "µg/mL"}
    ]},
    {"molecule": "Cc1c(-c2ccc(-c3ccccc3F)cc2)nc2ccc(F)cc2c1C(=O)[O-].[Na+]", "note": "[Example 118, Sodium 2-(2'-Fluoro-1,1'-biphenyl-4-yl)-6-fluoro-3-methylquinoline-4-carboxylate]", "values": [
      {"measurement": "response vs control in vivo at 25 mg/kg", "setting": "L1210 leukemia; Mus musculus, L1210, ip, 720 h, read-out: L1210 Leukemia % T/C (median survival time), 25 mg/kg i.p.", "result": 179, "unit": "%"},
      {"measurement": "IC50", "setting": "[1]", "result": 0.017, "unit": "µg/mL"}
    ]},
    {"molecule": "Cc1c(-c2ccc(Oc3ccc(Cl)cc3)cc2)nc2ccc(F)cc2c1C(=O)O", "note": "[Example 29]", "values": [
      {"measurement": "L1210 Leukemia % T/C (median survival time)", "setting": "L1210 leukemia; 18 mg/kg i.p.", "result": 194, "unit": "%"},
      {"measurement": "IC50", "setting": "[1]; [2]", "result": "< 0.5", "unit": "µg/mL"}
    ]},
    {"molecule": "Cc1c(-c2ccc(-c3ccc(F)cc3)cc2)nc2ccc(F)cc2c1C(=O)O", "note": "[Example 31]", "values": [
      {"measurement": "L1210 Leukemia % T/C (median survival time)", "setting": "L1210 leukemia; 37.5 mg/kg i.p.", "result": 218, "unit": "%"},
      {"measurement": "IC50", "setting": "[1]; [2]", "result": "< 0.5", "unit": "µg/mL"}
    ]},
    {"molecule": "COc1ccc(-c2ccc(-c3nc4ccc(Cl)cc4c(C(=O)O)c3C)cc2)cc1", "note": "[Example 114]", "values": [
      {"measurement": "response vs control in vivo at 50 mg/kg", "setting": "L1210 leukemia; Mus musculus, L1210, ip, 720 h, nonoptimal Q1DX9 instead of Q3DX9, read-out: L1210 Leukemia % T/C (median survival time)", "result": 121, "unit": "%"},
      {"measurement": "in vitro HCT-15 ID50 (50 percent inhibition of number of doublings)", "setting": "[1]; [2]", "result": 1.30, "unit": "µg/mL"}
    ]},
    {"molecule": "Cc1c(-c2ccc(-c3ccccc3)cc2)nc2cc(Cl)cc(Cl)c2c1C(=O)O", "note": "[Example 82]", "values": [
      {"measurement": "response vs control in vivo at 100 mg/kg", "setting": "L1210 leukemia; [3]", "result": 144, "unit": "%"},
      {"measurement": "IC50", "setting": "[1]; [2]", "result": "> 1", "unit": "µg/mL"}
    ]},
    {"molecule": "Cc1ccc(-c2ccc(-c3nc4ccc(F)cc4c(C(=O)O)c3C)cc2)cc1", "note": "[Example 30]", "values": [
      {"measurement": "response vs control in vivo at 300 mg/kg", "setting": "L1210 leukemia; [3]", "result": 291, "unit": "%"},
      {"measurement": "IC50", "setting": "[1]; [2]", "result": "< 0.5", "unit": "µg/mL"}
    ]},
    {"molecule": "Cc1cc2c(C(=O)O)c(C)c(-c3ccc(-c4ccccc4)cc3)nc2cc1Cl", "note": "[Example 58]", "values": [
      {"measurement": "response vs control in vivo at 150 mg/kg", "setting": "L1210 leukemia; Mus musculus, L1210, ip, 720 h, 150 mg/kg i.p., read-out: L1210 Leukemia % T/C (median survival time)", "result": 141, "unit": "%"},
      {"measurement": "in vitro HCT-15 ID50 (50 percent inhibition of number of doublings)", "setting": "[1]; [2]", "result": "> 0.50", "unit": "µg/mL"}
    ]},
    {"molecule": "COc1ccc(-c2ccc(-c3nc4ccc(Cl)cc4c(C(=O)O)c3C)cc2)cc1", "note": "[Example 24]", "values": [
      {"measurement": "response vs control in vivo at 400 mg/kg", "setting": "L1210 leukemia; [3]", "result": 154, "unit": "%"},
      {"measurement": "in vitro HCT-15 ID50 (50 percent inhibition of number of doublings)", "setting": "[1]; [2]", "result": 0.28, "unit": "µg/mL"}
    ]},
    {"molecule": "CCc1ccc(-c2ccc(-c3nc4ccc(F)cc4c(C(=O)O)c3C)cc2)cc1", "note": "[Example 40]", "values": [
      {"measurement": "response vs control in vivo at 100 mg/kg", "setting": "L1210 leukemia; [3]", "result": 157, "unit": "%"},
      {"measurement": "IC50", "setting": "[1]; [2]", "result": "> 1", "unit": "µg/mL"}
    ]},
    {"molecule": "Cc1c(-c2ccc(-c3ccccc3)cc2)nc2cc(F)ccc2c1C(=O)O", "note": "[Example 87]", "values": [
      {"measurement": "response vs control in vivo at 100 mg/kg", "setting": "L1210 leukemia; [3]", "result": 146, "unit": "%"},
      {"measurement": "IC50", "setting": "[1]; [2]", "result": "< 0.5", "unit": "µg/mL"}
    ]},
    {"molecule": "Cc1ccc(-c2ccc(-c3nc4ccc(F)cc4c(C(=O)O)c3C)cc2)cc1Cl", "note": "[Example 38]", "values": [
      {"measurement": "response vs control in vivo at 200 mg/kg", "setting": "L1210 leukemia; [3]", "result": 238, "unit": "%"},
      {"measurement": "IC50", "setting": "[1]; [2]", "result": "> 1", "unit": "µg/mL"}
    ]},
    {"molecule": "Cc1cc2c(C(=O)O)c(C)c(-c3ccc(Oc4ccccc4)cc3)nc2cc1Cl", "note": "[Example 59]", "values": [
      {"measurement": "response vs control in vivo at 300 mg/kg", "setting": "L1210 leukemia; [3]", "result": 152, "unit": "%"},
      {"measurement": "IC50", "setting": "[1]; [2]", "result": "> 5", "unit": "µg/mL"}
    ]},
    {"molecule": "Cc1c(-c2ccc(-c3ccccc3F)cc2)nc2ccc(F)cc2c1C(=O)O", "note": "[Example 28, 2-(2'-Fluoro-1,1'-biphenyl-4-yl)-6-fluoro-3-methyl4-quinolinecarboxylic acid]", "values": [
      {"measurement": "response vs control in vivo at 18 mg/kg", "setting": "L1210 leukemia; Mus musculus, L1210, ip, 720 h, 18 mg/kg i.p., read-out: L1210 Leukemia % T/C (median survival time)", "result": 174, "unit": "%"},
      {"measurement": "IC50", "setting": "[1]; [2]", "result": "< 0.5", "unit": "µg/mL"}
    ]},
    {"molecule": "CCc1c(-c2ccc(C3CCCCC3)cc2)nc2ccc(C)cc2c1C(=O)O", "note": "[Example 15]", "values": [
      {"measurement": "response vs control in vivo at 200 mg/kg", "setting": "L1210 leukemia; [3]", "result": 158, "unit": "%"},
      {"measurement": "IC50", "setting": "[1]; [2]", "result": 0.28, "unit": "µg/mL"}
    ]},
    {"molecule": "O=C(O)c1cc(-c2ccc(C3CCCCC3)cc2)nc2ccc(F)cc12", "note": "[Example 5]", "values": [
      {"measurement": "response vs control in vivo at 400 mg/kg", "setting": "L1210 leukemia; [3]", "result": 141, "unit": "%"},
      {"measurement": "IC50", "setting": "[1]; [2]", "result": 0.02, "unit": "µg/mL"}
    ]},
    {"molecule": "Cc1c(-c2ccc(-c3ccccc3)cc2)nc2ccc(Br)cc2c1C(=O)O", "note": "[Example 52]", "values": [
      {"measurement": "response vs control in vivo at 75 mg/kg", "setting": "L1210 leukemia; Mus musculus, L1210, ip, 720 h, 75 mg/kg i.p., read-out: L1210 Leukemia % T/C (median survival time)", "result": 189, "unit": "%"},
      {"measurement": "IC50", "setting": "[1]; [2]", "result": "< 0.5", "unit": "µg/mL"}
    ]},
    {"molecule": "Cc1c(-c2ccc(Sc3ccccc3)cc2)nc2ccc(Cl)cc2c1C(=O)O", "note": "[Example 111]", "values": [
      {"measurement": "response vs control in vivo at 25 mg/kg", "setting": "L1210 leukemia; Mus musculus, L1210, ip, 720 h, 25 mg/kg i.p., read-out: L1210 Leukemia % T/C (median survival time)", "result": 125, "unit": "%"},
      {"measurement": "IC50", "setting": "[1]; [2]", "result": "< 0.5", "unit": "µg/mL"}
    ]},
    {"molecule": "Cc1c(-c2ccc(C3CCCCC3)cc2)nc2c(Br)cc(Br)cc2c1C(=O)O", "note": "[Example 136]", "values": [
      {"measurement": "response vs control in vivo at 25 mg/kg", "setting": "L1210 leukemia; Mus musculus, L1210, ip, 720 h, 25 mg/kg i.p., nonoptimal Q1DX9 instead of Q3DX9, read-out: L1210 Leukemia % T/C (median survival time)", "result": 103, "unit": "%"},
      {"measurement": "in vitro HCT-15 ID50 (50 percent inhibition of number of doublings)", "setting": "[1]; [2]", "result": "> 0.50", "unit": "µg/mL"}
    ]}
  ]
}
